Test results taken from PubChem BioAssay (NCI).
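Growth conditions: 96-well plates. Treatment: test compound, 48 hours, 5 concentrations. Analysis: linear interpolation between bracketing concentrations; unreached endpoints set to highest concentration. At the TGI there is no net growth.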

Experiments:
Assay in all cases: NCI tumour cell line growth inhibition, 48 h
SNB-19 CNS = tested on: SNB-19 CNS
SK-OV-3 ovarian = tested on: SK-OV-3 ovarian
MDA-MB-435 = tested on: MDA-MB-435
HCT-15 colon = tested on: HCT-15 colon
TK-10 renal = tested on: TK-10 renal
SR leukemia = tested on: SR leukemia
NCI/ADR-RES ovarian = tested on: NCI/ADR-RES ovarian
HT29 colon = tested on: HT29 colon
HCT-116 colon = tested on: HCT-116 colon
A549 NSCLC = tested on: A549 NSCLC
A498 renal = tested on: A498 renal
SF-268 CNS = tested on: SF-268 CNS
MDA-N = tested on: MDA-N
U251 CNS = tested on: U251 CNS
BT-549 breast = tested on: BT-549 breast
HL-60(TB) leukemia = tested on: HL-60(TB) leukemia
SF-539 CNS = tested on: SF-539 CNS
OVCAR-5 ovarian = tested on: OVCAR-5 ovarian
786-0 renal = tested on: 786-0 renal
ACHN renal = tested on: ACHN renal
LOX IMVI melanoma = tested on: LOX IMVI melanoma
SK-MEL-2 melanoma = tested on: SK-MEL-2 melanoma
T-47D breast = tested on: T-47D breast
NCI-H23 lung = tested on: NCI-H23 lung
PC-3 prostate = tested on: PC-3 prostate
SW-620 colon = tested on: SW-620 colon
IGROV1 ovarian = tested on: IGROV1 ovarian
HS 578T breast = tested on: HS 578T breast
SN12C renal = tested on: SN12C renal
UACC-257 melanoma = tested on: UACC-257 melanoma
CAKI-1 renal = tested on: CAKI-1 renal
M14 melanoma = tested on: M14 melanoma
HCC-2998 colon = tested on: HCC-2998 colon
RXF 393 renal = tested on: RXF 393 renal
SNB-75 CNS = tested on: SNB-75 CNS
SK-MEL-28 melanoma = tested on: SK-MEL-28 melanoma
COLO 205 colon = tested on: COLO 205 colon
SK-MEL-5 melanoma = tested on: SK-MEL-5 melanoma
EKVX NSCLC = tested on: EKVX NSCLC
OVCAR-8 ovarian = tested on: OVCAR-8 ovarian
HOP-92 NSCLC = tested on: HOP-92 NSCLC
CCRF-CEM leukemia = tested on: CCRF-CEM leukemia
OVCAR-4 ovarian = tested on: OVCAR-4 ovarian
SF-295 CNS = tested on: SF-295 CNS
MDA-MB-231 breast = tested on: MDA-MB-231 breast
UO-31 renal = tested on: UO-31 renal
HOP-62 NSCLC = tested on: HOP-62 NSCLC
NCI-H226 lung = tested on: NCI-H226 lung
MOLT-4 leukemia = tested on: MOLT-4 leukemia
NCI-H522 lung = tested on: NCI-H522 lung
K-562 leukemia = tested on: K-562 leukemia
MALME-3M melanoma = tested on: MALME-3M melanoma
OVCAR-3 ovarian = tested on: OVCAR-3 ovarian
NCI-H460 lung = tested on: NCI-H460 lung
MCF7 breast = tested on: MCF7 breast
DU-145 prostate = tested on: DU-145 prostate
RPMI-8226 leukemia = tested on: RPMI-8226 leukemia
KM12 colon = tested on: KM12 colon

`CCOC(=O)C(NC(=O)Nc1ccc(Cl)cc1)(OC)C(F)(F)F` (centres undefined) showed a TGI (SNB-19 CNS) of over 100 µM, a TGI (SK-OV-3 ovarian) of over 100 µM and a TGI (MDA-MB-435) of over 100 µM. For the same molecule, the TGI (HCT-15 colon) was over 100 µM, the TGI (TK-10 renal) was over 100 µM and the TGI (SR leukemia) was over 100 µM. It also gave a TGI (NCI/ADR-RES ovarian) of over 100 µM, a TGI (HT29 colon) of over 100 µM and a TGI (HCT-116 colon) of over 100 µM. It also gave a TGI (A549 NSCLC) of over 100 µM, a TGI (A498 renal) of over 100 µM and a TGI (SF-268 CNS) of over 100 µM. It also gave a TGI (MDA-N) of over 100 µM, a TGI (U251 CNS) of over 100 µM and a TGI (BT-549 breast) of over 100 µM. The TGI (HL-60(TB) leukemia) was over 100 µM, the TGI (SF-539 CNS) was over 100 µM and the TGI (OVCAR-5 ovarian) was over 100 µM. It also gave a TGI (786-0 renal) of over 100 µM, a TGI (ACHN renal) of over 100 µM and a TGI (LOX IMVI melanoma) of over 100 µM. For the same molecule, the TGI (SK-MEL-2 melanoma) was 64.8 µM, the TGI (T-47D breast) was over 100 µM and the TGI (NCI-H23 lung) was over 100 µM. The TGI (PC-3 prostate) was over 100 µM, the TGI (SW-620 colon) was over 100 µM and the TGI (IGROV1 ovarian) was over 100 µM. For the same molecule, the TGI (HS 578T breast) was over 100 µM, the TGI (SN12C renal) was over 100 µM and the TGI (UACC-257 melanoma) was over 100 µM. The TGI (CAKI-1 renal) was over 100 µM, the TGI (M14 melanoma) was over 100 µM and the TGI (HCC-2998 colon) was 32.7 µM. It also gave a TGI (RXF 393 renal) of over 100 µM, a TGI (SNB-75 CNS) of over 100 µM and a TGI (SK-MEL-28 melanoma) of over 100 µM. For the same molecule, the TGI (COLO 205 colon) was over 100 µM, the TGI (SK-MEL-5 melanoma) was over 100 µM and the TGI (EKVX NSCLC) was over 100 µM. It also gave a TGI (OVCAR-8 ovarian) of over 100 µM.
Work on `COc1ccc(NC(C)c2ccncc2)cc1` (centres undefined) yielded a TGI (SNB-19 CNS) of over 100 µM, a TGI (HOP-92 NSCLC) of over 100 µM and a TGI (CCRF-CEM leukemia) of over 100 µM. It also gave a TGI (SK-OV-3 ovarian) of 65 µM, a TGI (MDA-MB-435) of over 100 µM and a TGI (HCT-15 colon) of over 100 µM. It also gave a TGI (TK-10 renal) of over 100 µM, a TGI (NCI/ADR-RES ovarian) of over 100 µM and a TGI (HT29 colon) of over 100 µM. For the same molecule, the TGI (OVCAR-4 ovarian) was over 100 µM, the TGI (SF-295 CNS) was over 100 µM and the TGI (HCT-116 colon) was over 100 µM. For the same molecule, the TGI (A549 NSCLC) was over 100 µM, the TGI (MDA-MB-231 breast) was over 100 µM and the TGI (A498 renal) was over 100 µM. The TGI (UO-31 renal) was over 100 µM, the TGI (SF-268 CNS) was over 100 µM and the TGI (HOP-62 NSCLC) was over 100 µM. The TGI (MDA-N) was over 100 µM, the TGI (U251 CNS) was over 100 µM and the TGI (NCI-H226 lung) was over 100 µM. The TGI (MOLT-4 leukemia) was over 100 µM, the TGI (BT-549 breast) was over 100 µM and the TGI (SF-539 CNS) was over 100 µM. The TGI (OVCAR-5 ovarian) was over 100 µM, the TGI (786-0 renal) was over 100 µM and the TGI (ACHN renal) was over 100 µM. For the same molecule, the TGI (NCI-H522 lung) was over 100 µM, the TGI (LOX IMVI melanoma) was over 100 µM and the TGI (K-562 leukemia) was over 100 µM. It also gave a TGI (SK-MEL-2 melanoma) of over 100 µM, a TGI (T-47D breast) of over 100 µM and a TGI (NCI-H23 lung) of over 100 µM. For the same molecule, the TGI (PC-3 prostate) was over 100 µM, the TGI (MALME-3M melanoma) was over 100 µM and the TGI (OVCAR-3 ovarian) was over 100 µM. For the same molecule, the TGI (SW-620 colon) was over 100 µM, the TGI (HS 578T breast) was over 100 µM and the TGI (SN12C renal) was over 100 µM. For the same molecule, the TGI (CAKI-1 renal) was over 100 µM, the TGI (M14 melanoma) was over 100 µM and the TGI (NCI-H460 lung) was over 100 µM. For the same molecule, the TGI (HCC-2998 colon) was over 100 µM, the TGI (RXF 393 renal) was over 100 µM and the TGI (SNB-75 CNS) was over 100 µM. It also gave a TGI (SK-MEL-28 melanoma) of over 100 µM, a TGI (MCF7 breast) of over 100 µM and a TGI (DU-145 prostate) of over 100 µM. The TGI (COLO 205 colon) was over 100 µM, the TGI (RPMI-8226 leukemia) was over 100 µM and the TGI (SK-MEL-5 melanoma) was over 100 µM. It also gave a TGI (EKVX NSCLC) of over 100 µM, a TGI (KM12 colon) of over 100 µM and a TGI (OVCAR-8 ovarian) of over 100 µM.
